“And” between values parts separate entries of the source, which are not always exact repeats. Equal values may be shown once. Read-outs that look alike come from different tables or passages of the source.
Assays:
[1] = MTT cytotoxicity assay, 3T3 cells; assay type: cell-based, mouse; settings: mouse, 3T3 mouse embryo fibroblasts, 3T3, 10 000 b/j; for viability at 72 h, 1 μM: koncentrace 1 μM; for viability at 72 h, 3 μM: koncentrace 3 μM; for viability at 72 h, 10 μM: koncentrace 10 μM; for viability at 72 h, 30 μM: koncentrace 30 μM; for viability at 72 h, 100 μM: koncentrace 100 μM; for viability at 72 h, 300 μM: koncentrace 300 μM; for viability at 72 h, 1000 μM: koncentrace 1000 μM
Method: (§1) For cytotoxicity experiments, cancer cells were seeded at a density of 5,000 (MCF-7), 10,000 (HL-60) or 2,000 cells/well (HCT116 and A549) in 96-well plates (TPP) for 24 h/37°C prior to the addition of examined agents. The non-cancerous cells, 3T3 and H9c2 cells, were cultured for 24 h/37°C in 96-well plates at a density of 10,000 cells/well, the medium was then changed to serum- and pyruvate-free DMEM (Sigma-Aldrich) and incubated with the cells for another 24 h/37°C. The cytotoxic effects of Bp4eT and its metabolites were studied at different concentrations after a 72 h/37°C incubation. In order to aid the dissolution of the lipophilic ligands, 0.1% dimethyl sulfoxide (v/v) (DMSO; Sigma-Aldrich) was present in the culture medium of all groups. At this concentration, DMSO had no effect on cellular proliferation or viability.
(§2) The viability of cells were determined using an MTT assay (Sigma-Aldrich) according to previously established methods. The optical density of soluble MTT was measured at λ = 570 nm, subtracting the λ = 690 nm background using a Tecan Infinite 200M plate reader (Tecan Group, Männedorf, Switzerland). The viability or proliferation of experimental groups was expressed as a percentage of the untreated controls (100%).
(§3) SigmaStat for Windows 3.5 (Systat Software, San Jose, CA, USA) statistical software package was utilized to analyze results. The data are expressed as the mean ± SD of a given number of experiments. Statistical significance was determined using a one-way ANOVA with a Bonferroni post-hoc test or Student’s t-test. The results were considered to be statistically significant when p < 0.05. The IC50 values were calculated using CalcuSyn 2.0 software (Biosoft, Cambridge, UK). Cell cycle analysis was evaluated using MultiCycle AV Software (Phoenix Flow Systems, San Diego, CA, USA).

[2] = tested on: 3T3 mouse embryo fibroblasts; experiment: MTT cytotoxicity assay, 3T3 cells; assay type: cell-based; settings: for MTT viability (0 = 100) / MTT, relative to control (0 = 100): 3T3, 10 000 b/j; for MTT viability (0 = 100): individual experiments; for IC50: 3T3, 72 h/37°C, MTT, mean ± SD, n ≥ 4, read-out: IC50
Method: as §1, §2, §3

MCF-7 cells = experiment: Cell cycle analysis by flow cytometry (propidium iodide); assay type: cell-based, human; settings: 0.1 μM, 72 h, control 33%
Method: To examine the effect of the agents on the cell cycle, MCF-7 cells were seeded in 60 mm Petri dishes at a density of 240,000 cells/dish and incubated with Bp4eT or its metabolites for 72 h/37°C. The cells were then harvested, fixed by ethanol and stained by propidium iodide (Molecular Probes, Eugene, OR, USA) for 30 min/37°C, as described previously. Cells were analyzed using Accuri C6 flow cytometer (Becton Dickinson and Company, San Jose, CA USA). Propidium iodide was excited at λex = 488 nm and fluorescence analyzed at λem = 585 nm (FL-2) with a total of 10,000 events collected per analysis.
as §3

caspase 8 = experiment: Caspase activity, luminescent kit, caspase 8; assay type: cell-based, human; settings: for kaspáza 8, raw signal / kaspáza 8, signal / viabilita: individual experiments by date; for kaspáza 8, raw signal, průměry / kaspáza 8, % kontroly / kaspáza 8, signal / viabilita, průměry: mean; for kaspáza 8, % kontroly / kaspáza 8, signal / viabilita / kaspáza 8, signal / viabilita, průměry: normalised to viability
Method: To assess the effect of the compounds on caspase activity, MCF-7 cells were incubated with 100 nM Bp4eT or its metabolites for 3, 24 or 72 h/37°C in 96-well plates, as described above. The cells were then lysed by adding 100 μL of cold lysis buffer (100 mM HEPES, 10 mM CHAPS, 10 mM D-L-dithiothreitol, pH 7.4) to 100 μL of medium in each well. Lysates were immediately frozen at -80°C. Thawed lysates were used to assess caspase activity using luminescent kits for caspases 3/7, 8 and 9 (Promega, Madison, WI, USA). The luminescence was measured using the Tecan Infinite 200M plate reader. Caspase activity in the experimental groups was corrected according to the cellular viability of each group and expressed as a percentage of activity of the untreated control (100%).

[3] = Viability (viabilita) used to normalise caspase activity; assay type: cell-based, human; settings: human, MCF-7 cells, kontrola = 100;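 note: compound tested at 100 nM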
Text: Supplement pone.0139929.s002.zip/caspases activity.xlsx, sheet "results_viability"

[4] = individual experiments, read-out: MTT viability (0 = 100)
[5] = mean, read-out: MTT viability (0 = 100), průměr

Structure (SMILES): CCNC(=O)NN=C(c1ccccc1)c1ccccn1 [E-Bp4eS, 2-benzoylpyridine 4-ethylsemicarbazone]
- viability at 72 h, 1 μM [1, 4]: 91%
- viability at 72 h, 1 μM [1, 5]: 98%
- viability at 72 h, 3 μM [1, 4]: 96.2%
- viability at 72 h, 3 μM [1, 5]: 94.8%
- viability at 72 h, 10 μM [1, 4]: 91.6%
- viability at 72 h, 10 μM [1, 5]: 92.9%
- viability at 72 h, 30 μM [1, 4]: 86.3%
- viability at 72 h, 30 μM [1, 5]: 90.2%
- viability at 72 h, 100 μM [1, 4]: 87.1%
- viability at 72 h, 100 μM [1, 5]: 83.9%
- viability at 72 h, 300 μM [1, 4]: 85.3%
- viability at 72 h, 300 μM [1, 5]: 81.5%
- viability at 72 h, 1000 μM [1, 4]: 74.1%
- viability at 72 h, 1000 μM [1, 5]: 66.7%
- MTT viability (0 = 100) ([2]; koncentrace 1 μM): 96.8721 and 104.341 and 100.156 and 97.6643
- MTT viability (0 = 100) ([2]; koncentrace 3 μM): 91.697 and 99.6923 and 92.7572 and 93.5961
- MTT viability (0 = 100) ([2]; koncentrace 10 μM): 87.504 and 95.4305 and 94.9836 and 95.1509
- MTT viability (0 = 100) ([2]; koncentrace 30 μM): 95.2772 and 94.6873 and 87.6265 and 86.7904
- MTT viability (0 = 100) ([2]; koncentrace 100 μM): 89.4336 and 75.046 and 83.8477
- MTT viability (0 = 100) ([2]; koncentrace 300 μM): 87.9502 and 69.8243 and 82.8158
- MTT viability (0 = 100) ([2]; koncentrace 1000 μM): 61.3011 and 59.7855 and 71.6828
- IC50 ([2]; Mus musculus, Fibroblast, 72 h): > 1000 µM
- Percentage of cells in the G2/M phase (MCF-7 cells): slight, but significant (p < 0.01–0.05) decrease
- kaspáza 8, raw signal (caspase 8; 3 hodiny): 1819 and 1041 and 1191.5 and 952.5
- kaspáza 8, raw signal, průměry (caspase 8; 3 hodiny): 1251
- kaspáza 8, % kontroly (caspase 8; 3 hodiny): 93.96 % kontroly
- kaspáza 8, signal / viabilita (caspase 8; 3 hodiny): 18.5259 and 10.6022 and 12.135 and 9.701
- kaspáza 8, signal / viabilita, průměry (caspase 8; 3 hodiny): 12.741
- kaspáza 8, raw signal (caspase 8; 24 hodin): 1530 and 1548 and 1983.5 and 1503
- kaspáza 8, raw signal, průměry (caspase 8; 24 hodin): 1641.12
- kaspáza 8, % kontroly (caspase 8; 24 hodin): 104.70 % kontroly
- kaspáza 8, signal / viabilita (caspase 8; 24 hodin): 15.3819 and 15.5629 and 19.9412 and 15.1105
- kaspáza 8, signal / viabilita, průměry (caspase 8; 24 hodin): 16.4991
- kaspáza 8, raw signal (caspase 8; 72 hodin): 6786.5 and 6488.5 and 6545 and 6983
- kaspáza 8, raw signal, průměry (caspase 8; 72 hodin): 6700.75
- kaspáza 8, % kontroly (caspase 8; 72 hodin): 98.51 % kontroly
- kaspáza 8, signal / viabilita (caspase 8; 72 hodin): 69.3845 and 66.3378 and 66.9154 and 71.3935
- kaspáza 8, signal / viabilita, průměry (caspase 8; 72 hodin): 68.5078

Structure (SMILES): CCNC(=O)NN=C(c1ccccc1)c1ccccn1 [Z-Bp4eS, 2-benzoylpyridine 4-ethylsemicarbazone]
- IC50 [2]: > 1000 µM
- MTT, relative to control (0 = 100) ([2]; 1 μM, průměr (mean)): 99.81
- MTT, relative to control (0 = 100) ([2]; 1 μM, single experiment (date)): 90.4217 and 112.179 and 103.613 and 93.692 and 99.1404
- MTT, relative to control (0 = 100) ([2]; 3 μM, průměr (mean)): 93.98
- MTT, relative to control (0 = 100) ([2]; 3 μM, single experiment (date)): 89.9896 and 95.9618 and 102.444 and 92.291 and 89.1987
- MTT, relative to control (0 = 100) ([2]; 10 μM, průměr (mean)): 93.85
- MTT, relative to control (0 = 100) ([2]; 10 μM, single experiment (date)): 91.4468 and 99.0627 and 95.1304 and 94.2734 and 89.336
- MTT, relative to control (0 = 100) ([2]; 30 μM, průměr (mean)): 90.21
- MTT, relative to control (0 = 100) ([2]; 30 μM, single experiment (date)): 100.856 and 90.0957 and 87.8236 and 82.0687
- MTT, relative to control (0 = 100) ([2]; 100 μM, průměr (mean)): 73.57
- MTT, relative to control (0 = 100) ([2]; 100 μM, single experiment (date)): 81.8752 and 74.6133 and 74.3643 and 63.4281
- MTT, relative to control (0 = 100) ([2]; 300 μM, průměr (mean)): 72.55
- MTT, relative to control (0 = 100) ([2]; 300 μM, single experiment (date)): 79.104 and 69.1035 and 70.1959 and 71.7888
- MTT, relative to control (0 = 100) ([2]; 1000 μM, průměr (mean)): 63.36
- MTT, relative to control (0 = 100) ([2]; 1000 μM, single experiment (date)): 73.2159 and 60.5042 and 61.05 and 58.6559
- kaspáza 8, raw signal (caspase 8; 3 hodiny): 1943.5 and 1086.5 and 1152 and 914.5
- kaspáza 8, raw signal, průměry (caspase 8; 3 hodiny): 1274.12
- kaspáza 8, % kontroly (caspase 8; 3 hodiny): 95.08 % kontroly
- kaspáza 8, signal / viabilita (caspase 8; 3 hodiny): 19.9524 and 11.1542 and 11.8267 and 9.388
- kaspáza 8, signal / viabilita, průměry (caspase 8; 3 hodiny): 13.0804
- kaspáza 8, raw signal (caspase 8; 24 hodin): 1728 and 1248 and 1958.5 and 1430.5
- kaspáza 8, raw signal, průměry (caspase 8; 24 hodin): 1591.25
- kaspáza 8, % kontroly (caspase 8; 24 hodin): 100.61 % kontroly
- kaspáza 8, signal / viabilita (caspase 8; 24 hodin): 17.3743 and 12.5481 and 19.6919 and 14.3831
- kaspáza 8, signal / viabilita, průměry (caspase 8; 24 hodin): 15.9994
- kaspáza 8, raw signal (caspase 8; 72 hodin): 6689.5 and 5535.5 and 6778.5 and 5867
- kaspáza 8, raw signal, průměry (caspase 8; 72 hodin): 6217.62
- kaspáza 8, % kontroly (caspase 8; 72 hodin): 96.15 % kontroly
- kaspáza 8, signal / viabilita (caspase 8; 72 hodin): 71.5149 and 59.1779 and 72.4663 and 62.7218
- kaspáza 8, signal / viabilita, průměry (caspase 8; 72 hodin): 66.4702
- viability at 3 h, 100 nM ([3]; 3 hodiny): 97.4%
- viability at 24 h, 100 nM ([3]; 24 hodin): 99.5%
- viability at 72 h, 100 nM ([3]; 72 hodin): 93.5%
